Tests used:
Assay type in all cases: ADME, cell-based
Cytochrome P450 2C9 [1] = target: T1, Cytochrome P450 2C9 (Homo sapiens, UniProt P11712); test: (§1) Drug activation in human Hep3B cells assessed as human CYP2C9-mediated drug metabolism-induced cytotoxicity measured as decrease in cell viability at 28.5 uM pre-incubated with BSO for 18 hrs followed by incubation with compound for 3 hrs in presence of NADPH measured after 24 hrs in absence of compound, CYP3A4 and NADPH by cell titer-glo luminescence assay relative to BSO alone; conditions: recombinant enzyme
T1 sequence (P11712 whole entry): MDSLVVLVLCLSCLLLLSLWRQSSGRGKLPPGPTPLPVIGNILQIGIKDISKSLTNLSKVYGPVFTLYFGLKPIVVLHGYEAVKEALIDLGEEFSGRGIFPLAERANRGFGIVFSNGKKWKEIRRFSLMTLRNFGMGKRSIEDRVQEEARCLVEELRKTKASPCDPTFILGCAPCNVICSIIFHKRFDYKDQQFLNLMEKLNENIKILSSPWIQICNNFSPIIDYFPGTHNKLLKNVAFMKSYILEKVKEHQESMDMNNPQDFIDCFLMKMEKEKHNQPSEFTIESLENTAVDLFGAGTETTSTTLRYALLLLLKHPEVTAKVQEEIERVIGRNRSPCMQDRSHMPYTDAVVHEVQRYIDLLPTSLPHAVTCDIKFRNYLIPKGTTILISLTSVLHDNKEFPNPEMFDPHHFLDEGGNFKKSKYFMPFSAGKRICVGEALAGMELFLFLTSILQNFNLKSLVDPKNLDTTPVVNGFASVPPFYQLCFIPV

Cytochrome P450 3A4 [2] = target: T2, Cytochrome P450 3A4 (Homo sapiens, UniProt P08684); test: as §1, with “CYP3A4-mediated” for “CYP2C9-mediated”, “6.5” for “28.5”; conditions: recombinant enzyme
T2 sequence (P08684 whole entry): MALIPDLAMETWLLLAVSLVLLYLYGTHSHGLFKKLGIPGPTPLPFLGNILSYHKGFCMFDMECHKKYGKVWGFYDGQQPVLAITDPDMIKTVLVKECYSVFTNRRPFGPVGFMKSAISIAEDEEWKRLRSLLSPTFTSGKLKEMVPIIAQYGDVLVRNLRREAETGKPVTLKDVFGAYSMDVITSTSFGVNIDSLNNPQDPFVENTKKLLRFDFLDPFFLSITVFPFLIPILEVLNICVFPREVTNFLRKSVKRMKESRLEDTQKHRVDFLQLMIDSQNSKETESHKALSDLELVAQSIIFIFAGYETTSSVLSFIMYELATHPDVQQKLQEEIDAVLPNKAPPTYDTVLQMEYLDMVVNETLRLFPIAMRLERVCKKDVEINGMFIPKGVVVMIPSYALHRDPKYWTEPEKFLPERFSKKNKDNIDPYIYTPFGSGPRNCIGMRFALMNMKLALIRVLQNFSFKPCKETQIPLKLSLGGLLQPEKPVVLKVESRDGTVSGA

Cytochrome P450 2D6 [3] = target: T3, Cytochrome P450 2D6 (Homo sapiens, UniProt P10635); test: as §1, with “CYP2D6-mediated” for “CYP2C9-mediated”, “6.8” for “28.5”; conditions: recombinant enzyme
T3 sequence (P10635 whole entry): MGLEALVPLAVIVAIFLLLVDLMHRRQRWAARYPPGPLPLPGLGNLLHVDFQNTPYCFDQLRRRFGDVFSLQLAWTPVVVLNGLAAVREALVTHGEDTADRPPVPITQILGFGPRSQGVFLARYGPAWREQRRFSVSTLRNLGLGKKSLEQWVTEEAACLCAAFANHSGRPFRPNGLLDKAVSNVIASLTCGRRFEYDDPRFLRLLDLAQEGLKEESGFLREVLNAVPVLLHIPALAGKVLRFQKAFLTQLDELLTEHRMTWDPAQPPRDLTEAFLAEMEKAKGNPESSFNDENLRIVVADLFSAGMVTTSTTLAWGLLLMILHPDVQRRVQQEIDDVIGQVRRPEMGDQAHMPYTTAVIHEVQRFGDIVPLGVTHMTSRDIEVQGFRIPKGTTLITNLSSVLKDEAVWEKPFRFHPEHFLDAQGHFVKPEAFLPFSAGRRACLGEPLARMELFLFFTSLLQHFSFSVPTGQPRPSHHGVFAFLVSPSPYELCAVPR

Cytochrome P450 2C9 [4] = target: T1, Cytochrome P450 2C9; test: as §1, with “7.6” for “28.5”; conditions: recombinant enzyme
Cytochrome P450 3A4 [5] = target: T2, Cytochrome P450 3A4; test: as §1, with “CYP3A4-mediated” for “CYP2C9-mediated”, “9.6” for “28.5”; conditions: recombinant enzyme
Cytochrome P450 2D6 [6] = target: T3, Cytochrome P450 2D6; test: as §1, with “CYP2D6-mediated” for “CYP2C9-mediated”, “12.8” for “28.5”; conditions: recombinant enzyme
Cytochrome P450 2D6 [7] = target: T3, Cytochrome P450 2D6; test: as §1, with “CYP2D6-mediated” for “CYP2C9-mediated”, “130.3” for “28.5”; conditions: recombinant enzyme
Cytochrome P450 3A4 [8] = target: T2, Cytochrome P450 3A4; test: as §1, with “CYP3A4-mediated” for “CYP2C9-mediated”, “89.6” for “28.5”; conditions: recombinant enzyme
Cytochrome P450 2C9 [9] = target: T1, Cytochrome P450 2C9; test: as §1, with “118.7” for “28.5”; conditions: recombinant enzyme
Cytochrome P450 2D6 [10] = target: T3, Cytochrome P450 2D6; test: as §1, with “CYP2D6-mediated” for “CYP2C9-mediated”, “162.8” for “28.5”; conditions: recombinant enzyme
Cytochrome P450 2C9 [11] = target: T1, Cytochrome P450 2C9; test: as §1, with “200.9” for “28.5”; conditions: recombinant enzyme
Cytochrome P450 3A4 [12] = target: T2, Cytochrome P450 3A4; test: as §1, with “CYP3A4-mediated” for “CYP2C9-mediated”, “89.1” for “28.5”; conditions: recombinant enzyme
Cytochrome P450 2D6 [13] = target: T3, Cytochrome P450 2D6; test: as §1, with “CYP2D6-mediated” for “CYP2C9-mediated”, “3.4” for “28.5”; conditions: recombinant enzyme
Cytochrome P450 3A4 [14] = target: T2, Cytochrome P450 3A4; test: as §1, with “CYP3A4-mediated” for “CYP2C9-mediated”, “0.3” for “28.5”; conditions: recombinant enzyme
Cytochrome P450 2C9 [15] = target: T1, Cytochrome P450 2C9; test: as §1, with “2.8” for “28.5”; conditions: recombinant enzyme
Cytochrome P450 2D6 [16] = target: T3, Cytochrome P450 2D6; test: as §1, with “CYP2D6-mediated” for “CYP2C9-mediated”, “3” for “28.5”; conditions: recombinant enzyme
Cytochrome P450 3A4 [17] = target: T2, Cytochrome P450 3A4; test: as §1, with “CYP3A4-mediated” for “CYP2C9-mediated”, “2.2” for “28.5”; conditions: recombinant enzyme
Cytochrome P450 2C9 [18] = target: T1, Cytochrome P450 2C9; test: as §1, with “25.3” for “28.5”; conditions: recombinant enzyme
Cytochrome P450 2D6 [19] = target: T3, Cytochrome P450 2D6; test: as §1, with “CYP2D6-mediated” for “CYP2C9-mediated”, “20.8” for “28.5”; conditions: recombinant enzyme
Cytochrome P450 2C9 [20] = target: T1, Cytochrome P450 2C9; test: as §1, with “78.1” for “28.5”; conditions: recombinant enzyme
Cytochrome P450 3A4 [21] = target: T2, Cytochrome P450 3A4; test: as §1, with “CYP3A4-mediated” for “CYP2C9-mediated”, “14.9” for “28.5”; conditions: recombinant enzyme
Cytochrome P450 2D6 [22] = target: T3, Cytochrome P450 2D6; test: as §1, with “CYP2D6-mediated” for “CYP2C9-mediated”, “131.3” for “28.5”; conditions: recombinant enzyme
Cytochrome P450 2C9 [23] = target: T1, Cytochrome P450 2C9; test: as §1, with “77.6” for “28.5”; conditions: recombinant enzyme
Cytochrome P450 3A4 [24] = target: T2, Cytochrome P450 3A4; test: as §1, with “CYP3A4-mediated” for “CYP2C9-mediated”, “10.7” for “28.5”; conditions: recombinant enzyme
Cytochrome P450 2C9 [25] = target: T1, Cytochrome P450 2C9; test: as §1, with “59.9” for “28.5”; conditions: recombinant enzyme
Cytochrome P450 3A4 [26] = target: T2, Cytochrome P450 3A4; test: as §1, with “CYP3A4-mediated” for “CYP2C9-mediated”, “37.6” for “28.5”; conditions: recombinant enzyme
Cytochrome P450 2D6 [27] = target: T3, Cytochrome P450 2D6; test: as §1, with “CYP2D6-mediated” for “CYP2C9-mediated”, “66.8” for “28.5”; conditions: recombinant enzyme
Cytochrome P450 2D6 [28] = target: T3, Cytochrome P450 2D6; test: as §1, with “CYP2D6-mediated” for “CYP2C9-mediated”, “8.6” for “28.5”; conditions: recombinant enzyme
Cytochrome P450 2C9 [29] = target: T1, Cytochrome P450 2C9; test: as §1, with “14” for “28.5”; conditions: recombinant enzyme
Cytochrome P450 2C9 [30] = target: T1, Cytochrome P450 2C9; test: as §1, with “28.5” left out; conditions: recombinant enzyme, 14.6 µM
Cytochrome P450 2D6 [31] = target: T3, Cytochrome P450 2D6; test: as §1, with “CYP2D6-mediated” for “CYP2C9-mediated”, “4.8” for “28.5”; conditions: recombinant enzyme
Cytochrome P450 2C9 [32] = target: T1, Cytochrome P450 2C9; test: as §1, with “40.5” for “28.5”; conditions: recombinant enzyme
Cytochrome P450 3A4 [33] = target: T2, Cytochrome P450 3A4; test: as §1, with “CYP3A4-mediated” for “CYP2C9-mediated”, “8.5” for “28.5”; conditions: recombinant enzyme
Cytochrome P450 2D6 [34] = target: T3, Cytochrome P450 2D6; test: as §1, with “CYP2D6-mediated” for “CYP2C9-mediated”, “15.2” for “28.5”; conditions: recombinant enzyme
Cytochrome P450 2D6 [35] = target: T3, Cytochrome P450 2D6; test: as §1, with “CYP2D6-mediated” for “CYP2C9-mediated”, “33.9” for “28.5”; conditions: recombinant enzyme
Cytochrome P450 2C9 [36] = target: T1, Cytochrome P450 2C9; test: as §1, with “34.1” for “28.5”; conditions: recombinant enzyme
Cytochrome P450 3A4 [37] = target: T2, Cytochrome P450 3A4; test: as §1, with “CYP3A4-mediated” for “CYP2C9-mediated”, “25.2” for “28.5”; conditions: recombinant enzyme
Cytochrome P450 3A4 [38] = target: T2, Cytochrome P450 3A4; test: as §1, with “CYP3A4-mediated” for “CYP2C9-mediated”, “80.2” for “28.5”; conditions: recombinant enzyme
Cytochrome P450 2D6 [39] = target: T3, Cytochrome P450 2D6; test: as §1, with “CYP2D6-mediated” for “CYP2C9-mediated”, “129.2” for “28.5”; conditions: recombinant enzyme
Cytochrome P450 2C9 [40] = target: T1, Cytochrome P450 2C9; test: as §1, with “210.8” for “28.5”; conditions: recombinant enzyme

CC1=C(CC(=O)O)c2cc(F)ccc2/C1=C\c1ccc([S+](C)[O-])cc1 (configuration not stated)
fold change (FC) (Cytochrome P450 2C9 [1]): 1.6 | fold change (FC) (Cytochrome P450 3A4 [2]): 6.9 | fold change (FC) (Cytochrome P450 2D6 [3]): 6.7

CCC[C@@]1(CCc2ccccc2)CC(O)=C([C@H](CC)c2cccc(NS(=O)(=O)c3ccc(C(F)(F)F)cn3)c2)C(=O)O1
fold change (FC) (Cytochrome P450 2C9 [4]): 1.6 | fold change (FC) (Cytochrome P450 3A4 [5]): 1.3 | fold change (FC) (Cytochrome P450 2D6 [6]): 1

CN1CC(C(=O)N[C@]2(C)O[C@@]3(O)[C@@H]4CCCN4C(=O)[C@H](Cc4ccccc4)N3C2=O)C[C@@H]2c3cccc4[nH]cc(c34)C[C@H]21 (some centres not stated)
fold change (FC) (Cytochrome P450 2D6 [7]): 0.5 | fold change (FC) (Cytochrome P450 3A4 [8]): 0.7 | fold change (FC) (Cytochrome P450 2C9 [9]): 0.5

CN1[C@@H]2CC[C@H]1C[C@@H](OC(c1ccccc1)c1ccccc1)C2 [BENZTROPINE]
fold change (FC) (Cytochrome P450 2D6 [10]): 0.7 | fold change (FC) (Cytochrome P450 2C9 [11]): 0.5 | fold change (FC) (Cytochrome P450 3A4 [12]): 1.2

CC(CCc1ccc(O)cc1)NCCc1ccc(O)c(O)c1 (configuration not stated) [DOBUTAMINE]
fold change (FC) (Cytochrome P450 2D6 [13]): 89.2 | fold change (FC) (Cytochrome P450 3A4 [14]): 1023.9 | fold change (FC) (Cytochrome P450 2C9 [15]): 108.1

CC(C)NCC(O)c1ccc(O)c(O)c1 (configuration not stated) [ISOPROTERENOL]
fold change (FC) (Cytochrome P450 2D6 [16]): 100.1 | fold change (FC) (Cytochrome P450 3A4 [17]): 135.8 | fold change (FC) (Cytochrome P450 2C9 [18]): 11.8

CC[C@@H](CO)NC(=O)[C@@H]1C=C2c3cccc4c3c(cn4C)C[C@H]2N(C)C1 [METHYSERGIDE]
fold change (FC) (Cytochrome P450 2D6 [19]): 2.1 | fold change (FC) (Cytochrome P450 2C9 [20]): 0.6 | fold change (FC) (Cytochrome P450 3A4 [21]): 2.9

CCN(CC)CC#CCOC(=O)C(O)(c1ccccc1)C1CCCCC1 (configuration not stated) [OXYBUTYNIN]
fold change (FC) (Cytochrome P450 2D6 [22]): 0.4 | fold change (FC) (Cytochrome P450 2C9 [23]): 0.6 | fold change (FC) (Cytochrome P450 3A4 [24]): 4.3

CC(C)(C)NC[C@H](O)COc1ccccc1C1CCCC1 [PENBUTOLOL]
fold change (FC) (Cytochrome P450 2C9 [25]): 0.9 | fold change (FC) (Cytochrome P450 3A4 [26]): 1.5 | fold change (FC) (Cytochrome P450 2D6 [27]): 0.8

CC(COc1ccccc1)N(CCCl)Cc1ccccc1 (configuration not stated) [PHENOXYBENZAMINE]
fold change (FC) (Cytochrome P450 3A4 [5]): 1.3 | fold change (FC) (Cytochrome P450 2D6 [28]): 1.5 | fold change (FC) (Cytochrome P450 2C9 [29]): 0.9

COc1cc(NC(C)CCCN)c2ncccc2c1 (configuration not stated) [PRIMAQUINE]
fold change (FC) (Cytochrome P450 3A4 [2]): 12.3 | FC (Cytochrome P450 2C9 [30]): 5.5 | fold change (FC) (Cytochrome P450 2D6 [31]): 16.7

Cc1c(C)c2c(c(C)c1O)CCC(C)(COc1ccc(CC3SC(=O)NC3=O)cc1)O2 (configuration not stated) [TROGLITAZONE]
fold change (FC) (Cytochrome P450 2C9 [32]): 1.2 | fold change (FC) (Cytochrome P450 3A4 [33]): 5.5 | fold change (FC) (Cytochrome P450 2D6 [34]): 3.1

COc1cc(C(=O)NS(=O)(=O)c2ccccc2C)ccc1Cc1cn(C)c2ccc(NC(=O)OC3CCCC3)cc12 [ZAFIRLUKAST]
fold change (FC) (Cytochrome P450 2D6 [35]): 1.4 | fold change (FC) (Cytochrome P450 2C9 [36]): 1.4 | fold change (FC) (Cytochrome P450 3A4 [37]): 1.9

CN(C)C/C=C(/c1ccc(Br)cc1)c1cccnc1 [ZIMELDINE]
fold change (FC) (Cytochrome P450 3A4 [38]): 2.8 | fold change (FC) (Cytochrome P450 2D6 [39]): 1.8 | fold change (FC) (Cytochrome P450 2C9 [40]): 1.1

Reference: ChEMBL document CHEMBL4477225, “Development of a cell viability assay to assess drug metabolite structure-toxicity relationships” (Bioorg Med Chem Lett, 2016)
